Data as given in article PMC9770967, “Native holdup (nHU) to measure binding affinities from cell extracts” (Science Advances, 2022).
Like-named read-outs stand apart in the source and are kept apart here. *1 amine or outer side, *2 acyl side, *3 side chain or, on linkers, in order; H or OH if unused. Where a SMILES comes first, the peptide text is derived from it. The star is where a group is joined. X1 = O=C(CCCC[C@@H]1SC[C@@H]2NC(=O)N[C@@H]21)NCCCOCCOCCOCCCN*; Suc = O=C(CCC(=O)[*:2])[*:1]

Experiments:
SCRIB PDZ1 = conditions: fragmentomic, isolated PDZ domain; cited from earlier work
Text: Supplement sciadv.ade3828_table_s1.zip/sciadv.ade3828_table_s1.xlsx, sheet "nHU-WB_SP" | column: Domain-motif fragmentomic affinities (ProfAff)

[1] = biological target: endogenous full-length SCRIB (Homo sapiens, UniProt Q14160); assay: Single-point nHU-WB, 12 PBM peptide baits, Jurkat extract; type: binding
[2] = biological target: T1, endogenous full-length SNX27 (Homo sapiens, UniProt Q96L92); assay: as above; type: binding
T1 construct: Supernatant fractions were probed with specific antibodies against endogenous full-length PDZ domain–containing proteins SCRIB and SNX27; endogenous in cells; host or cells: Jurkat E6.1 total cell extract

[3] = biological target: isolated PDZ domain of SNX27; conditions: 10-mer PBM peptide vs isolated PDZ domain, holdup; cited from earlier work
SCRIB PDZ3 = conditions: fragmentomic, isolated PDZ domain; cited from earlier work
Text: (§1) Supplement sciadv.ade3828_table_s1.zip/sciadv.ade3828_table_s1.xlsx, sheet "nHU-WB_SP"

SCRIB PDZ2 = conditions: fragmentomic, isolated PDZ domain; cited from earlier work
Text: as §1

endogenous full-length SCRIB, sequence (Q14160 whole entry): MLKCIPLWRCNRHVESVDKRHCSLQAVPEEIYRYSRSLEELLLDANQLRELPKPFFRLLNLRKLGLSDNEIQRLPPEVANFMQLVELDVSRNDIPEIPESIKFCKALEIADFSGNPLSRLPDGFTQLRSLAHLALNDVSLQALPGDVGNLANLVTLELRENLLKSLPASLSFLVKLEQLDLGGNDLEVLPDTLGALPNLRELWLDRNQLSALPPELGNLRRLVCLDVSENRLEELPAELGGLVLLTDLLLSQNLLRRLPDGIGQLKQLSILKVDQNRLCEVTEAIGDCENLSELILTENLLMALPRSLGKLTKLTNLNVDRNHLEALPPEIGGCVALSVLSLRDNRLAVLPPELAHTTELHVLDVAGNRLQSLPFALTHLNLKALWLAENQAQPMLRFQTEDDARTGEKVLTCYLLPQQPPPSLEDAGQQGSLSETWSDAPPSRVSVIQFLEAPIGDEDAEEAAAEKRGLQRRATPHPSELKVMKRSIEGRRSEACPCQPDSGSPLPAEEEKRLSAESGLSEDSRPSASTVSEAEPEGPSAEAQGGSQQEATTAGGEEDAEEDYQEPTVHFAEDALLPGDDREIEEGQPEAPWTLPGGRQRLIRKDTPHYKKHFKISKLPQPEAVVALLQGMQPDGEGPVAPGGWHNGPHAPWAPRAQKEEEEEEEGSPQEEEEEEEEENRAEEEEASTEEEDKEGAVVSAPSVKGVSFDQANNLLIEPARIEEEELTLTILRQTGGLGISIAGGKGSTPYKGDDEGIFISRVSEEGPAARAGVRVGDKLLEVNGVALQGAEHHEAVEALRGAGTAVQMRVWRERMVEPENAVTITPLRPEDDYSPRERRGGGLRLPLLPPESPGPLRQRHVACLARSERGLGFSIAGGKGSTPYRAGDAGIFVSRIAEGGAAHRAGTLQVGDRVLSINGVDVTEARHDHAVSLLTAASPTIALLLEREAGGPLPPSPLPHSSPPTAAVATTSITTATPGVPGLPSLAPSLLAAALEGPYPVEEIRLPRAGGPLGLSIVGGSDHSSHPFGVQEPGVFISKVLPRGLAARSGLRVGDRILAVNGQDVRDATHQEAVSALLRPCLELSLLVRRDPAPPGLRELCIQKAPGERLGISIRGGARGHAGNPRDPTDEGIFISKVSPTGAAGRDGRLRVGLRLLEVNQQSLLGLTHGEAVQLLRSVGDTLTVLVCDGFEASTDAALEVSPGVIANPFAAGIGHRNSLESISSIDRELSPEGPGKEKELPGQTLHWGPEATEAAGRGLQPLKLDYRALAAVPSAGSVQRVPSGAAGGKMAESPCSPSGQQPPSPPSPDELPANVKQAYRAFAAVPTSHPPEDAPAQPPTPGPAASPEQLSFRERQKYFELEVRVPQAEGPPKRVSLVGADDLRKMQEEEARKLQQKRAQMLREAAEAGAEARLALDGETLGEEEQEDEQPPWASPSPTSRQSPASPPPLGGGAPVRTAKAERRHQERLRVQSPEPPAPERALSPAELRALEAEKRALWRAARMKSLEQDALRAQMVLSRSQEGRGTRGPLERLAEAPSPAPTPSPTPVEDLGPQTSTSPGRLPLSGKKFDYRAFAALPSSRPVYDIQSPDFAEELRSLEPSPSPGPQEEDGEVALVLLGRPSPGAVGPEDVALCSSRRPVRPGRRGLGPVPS

## CC(C)C[C@H](NC(=O)[C@H](CC(N)=O)NC(=O)[C@@H](NC(=O)[C@H](CCC(=O)O)NC(=O)[C@H](CC(=O)O)NC(=O)[C@H](Cc1c[nH]c2ccccc12)NC(=O)[C@H](C)NC(=O)[C@@H]1CCCN1C(=O)[C@H](CC(=O)O)NC(=O)[C@H](CC(N)=O)NC(=O)CCC(=O)NCCCOCCOCCOCCCNC(=O)CCCC[C@@H]1SC[C@@H]2NC(=O)N[C@@H]21)[C@@H](C)O)C(=O)O [ARHGEF7] ({X1-Suc}-NDPAWDETNL-OH; C-terminus assumed)
SCRIB PDZ1
  pKd_PDZ1: 5.50
[1]
  Kd: 1.35 µM
[2]
  Kd: 1.51 µM
[3]
  pKd (fragmentomic affinity): 5.66
SCRIB PDZ3
  pKd_PDZ3: 5.08
SCRIB PDZ2
  pKd_PDZ2: 4.68

## CC[C@H](C)[C@H](NC(=O)CCC(=O)NCCCOCCOCCOCCCNC(=O)CCCC[C@@H]1SC[C@@H]2NC(=O)N[C@@H]21)C(=O)N[C@@H](CC(=O)O)C(=O)N[C@@H](CC(N)=O)C(=O)N[C@@H](CC(=O)O)C(=O)N[C@H](C(=O)N[C@@H](CCC(=O)O)C(=O)N[C@@H](CO)C(=O)N[C@H](C(=O)N[C@@H](C)C(=O)N[C@@H](CC(C)C)C(=O)O)[C@@H](C)O)[C@@H](C)O [ARHGAP17] ({X1-Suc}-IDNDTESTAL-OH; C-terminus assumed)
SCRIB PDZ1
  pKd_PDZ1: 4.91
[3]
  pKd (fragmentomic affinity): 4.97
SCRIB PDZ3
  pKd_PDZ3: 4.57
SCRIB PDZ2
  pKd_PDZ2: 3.61

## CC(C)[C@H](NC(=O)[C@@H]1CCCN1C(=O)[C@H](CO)NC(=O)[C@H](CCC(=O)O)NC(=O)[C@H](CCC(=O)O)NC(=O)[C@H](CCC(=O)O)NC(=O)[C@H](CCCCN)NC(=O)[C@@H]1CCCN1C(=O)CNC(=O)CNC(=O)CCC(=O)NCCCOCCOCCOCCCNC(=O)CCCC[C@@H]1SC[C@@H]2NC(=O)N[C@@H]21)C(=O)O [SLC16A1] ({X1-Suc}-GGPKEEESPV-OH; C-terminus assumed)
SCRIB PDZ1
  pKd_PDZ1: 5.18
[1]
  Kd: 69.2 µM
[2]
  Kd: 6.17 µM
[3]
  pKd (fragmentomic affinity): 5.27

## CSCC[C@H](NC(=O)[C@@H](NC(=O)[C@H](CO)NC(=O)[C@H](CCC(=O)O)NC(=O)[C@H](CCCCN)NC(=O)[C@H](CCC(=O)O)NC(=O)[C@H](CO)NC(=O)[C@H](C)NC(=O)[C@@H](NC(=O)[C@@H](NC(=O)CCC(=O)NCCCOCCOCCOCCCNC(=O)CCCC[C@@H]1SC[C@@H]2NC(=O)N[C@@H]21)[C@@H](C)O)C(C)C)C(C)C)C(=O)O [SLC1A5] ({X1-Suc}-TVASEKESVM-OH; C-terminus assumed)
SCRIB PDZ1
  pKd_PDZ1: 5.20
[1]
  Kd: 112 µM
[2]
  Kd: 8.91 µM
[3]
  pKd (fragmentomic affinity): 5.29
SCRIB PDZ3
  pKd_PDZ3: 3.97

## CC(C)C[C@H](NC(=O)[C@H](CO)NC(=O)[C@@H](NC(=O)[C@H](CCC(=O)O)NC(=O)[C@H](CCC(=O)O)NC(=O)[C@H](CS)NC(=O)[C@@H](NC(=O)[C@H](CCCNC(=N)N)NC(=O)[C@@H](NC(=O)[C@@H]1CCCN1C(=O)CCC(=O)NCCCOCCOCCOCCCNC(=O)CCCC[C@@H]1SC[C@@H]2NC(=O)N[C@@H]21)C(C)C)C(C)C)[C@@H](C)O)C(=O)O [OTULIN] ({X1-Suc}-PVRVCEETSL-OH; C-terminus assumed)
SCRIB PDZ1
  pKd_PDZ1: 5.44
[3]
  pKd (fragmentomic affinity): 5.58
SCRIB PDZ3
  pKd_PDZ3: 5.64
SCRIB PDZ2
  pKd_PDZ2: 4.70

## CC(C)[C@H](NC(=O)CN)C(=O)N[C@@H](CCC(=O)O)C(=O)NCC(=O)N[C@@H](CO)C(=O)N[C@@H](CC(=O)O)C(=O)N[C@H](C(=O)N[C@H](C(=O)N[C@@H](CCC(=O)O)C(=O)N[C@@H](C)C(=O)O)[C@@H](C)O)[C@@H](C)O [MAP4] (H-GVEGSDTTEA-OH)
[1]; apparent, Eq. 2, ~10 μM bait, Jurkat extract, mean of replicates with a value, read-out: av.pKapp (converted)
  Kd: 1.17 µM
[2]; apparent, Eq. 2, ~10 μM bait, Jurkat extract, mean of n = 3, read-out: av.pKapp (converted)
  Kd: 1.51 µM

## CC(C)C[C@H](NC(=O)[C@@H]1CCCN1C(=O)[C@H](Cc1c[nH]cn1)NC(=O)[C@H](Cc1ccccc1)NC(=O)CCC(=O)NCCCOCCOCCOCCCNC(=O)CCCC[C@@H]1SC[C@@H]2NC(=O)N[C@@H]21)C(=O)NCC(=O)N[C@@H](C)C(=O)N[C@@H](CC(=O)O)C(=O)N[C@@H](CO)C(=O)N[C@@H](CCC(N)=O)C(=O)N[C@H](C(=O)O)C(C)C [SLC2A1] ({X1-Suc}-FHPLGADSQV-OH; C-terminus assumed)
SCRIB PDZ1
  pKd_PDZ1: 4.02
[1]
  Kd: 69.2 µM
[2]
  Kd: 25.1 µM
[3]
  pKd (fragmentomic affinity): 4.05
SCRIB PDZ3
  pKd_PDZ3: 3.58
